In brackets after ≈: the same amount, converted by molar mass. Activity calls are given as the source filed them. The calls are words filed in the database; no cut-off is given here.

The test system of one data set is P388. Nature of the data set: Cytotoxicity against mouse P388 cells. Type of data set: functional, cell-based.
The nature of data set [1]: Cytotoxicity against […] BSC cells at 60 ug/disk. The class given is cell-based.
In a further data set the test system is Candida albicans. Nature of the data set: Antimicrobial activity against Candida albicans at 60 ug/disk. The class given is functional, organism-based.

Turning to `C=C[C@@]1(C)C=C2CC[C@@H]3C(C)(C)CC[C@H](O)[C@@]3(C)[C@@H]2CC1`, the half-inhibitory concentration (IC50) with P388 was more than 25 µg/mL. For the same compound, the Activity result in data set [1] was “Not Active”. Also, the outcome in the data set with Candida albicans was inactive.

`C[C@@H]1C[C@@]23CC[C@@H]4C(C)(C)CC[C@H](O)[C@@]4(C)[C@@H]2CC(=O)[C@@H]1C3` showed an IC50 in the data set on P388 of 15 µg/mL (≈ 49.3 µM).

What is called IC50 is the concentration needed to halve the response being measured. High values mean weaker potency, low ones greater potency.

The record behind these values is ChEMBL document CHEMBL1146411, “1-Hydroxyditerpenes from Two New Zealand Liverworts, Paraschistochila pinnatifolia and Trichocolea mollissima” (J Nat Prod, 1997).
